Starred links: 1 amine or outer side, 2 acyl side, 3 side chain; linkers in the order of their positions; H or OH if unused. Positions of bridges follow the written chain, without caps; N, C: chain ends. Non-standard residues stand in square brackets, D forms with d. Residues, ends and D or L forms follow the SMILES beside them. *: point of attachment. C20 diacid = O=C(O)CCCCCCCCCCCCCCCCCCC(=O)*; C18 diacid = O=C(O)CCCCCCCCCCCCCCCCC(=O)*; γGlu = O=C(O)[C@H](CCC(=O)[*:2])N[*:1]; Orn = NCCC[C@H](N)C(=O)O; AEEA = NCCOCCOCC(=O)O
Tested on: food intake
Assay: Assay (I) efficacy testing on appetite (food intake), ad libitum fed rat model
Format: in vivo, Sprague Dawley (SD) rats
Method in brief: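 Sprague Dawley rats (200–250 g), single-housed under reversed light cycle with free food and water, got one ip, po or sc dose of 0.01–3 mg/kg just before lights-off. Individual food intake recorded hourly for 7 h, then at 24 h and sometimes 48 h; groups of 5–8, Grubbs outliers excluded.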

CC[C@H](C)[C@H](NC(=O)[C@H](CCC(=O)O)NC(=O)CNC(=O)[C@H](Cc1ccccc1)NC(=O)[C@H](CC(N)=O)NC(=O)[C@H](CC(N)=O)NC(=O)[C@H](CO)NC(=O)[C@H](CO)NC(=O)[C@H](CCCNC(=N)N)NC(=O)[C@H](Cc1c[nH]cn1)NC(=O)[C@H](CC(C)C)NC(=O)[C@H](Cc1ccccc1)NC(=O)[C@H](CCC(=O)O)NC(=O)[C@H](C)NC(=O)[C@H](CC(C)C)NC(=O)[C@H](CCCNC(=N)N)NC(=O)[C@H](CCC(N)=O)NC(=O)[C@@H](NC(=O)[C@H](C)NC(=O)[C@@H]1CSSC[C@H](NC(=O)[C@H](Cc2c[nH]cn2)NC(=O)CC[C@H](NC(=O)CCCCCCCCCCCCCCCCCCC(=O)O)C(=O)O)C(=O)N[C@@H](CC(N)=O)C(=O)N[C@@H]([C@@H](C)O)C(=O)N[C@@H](C)C(=O)N[C@@H]([C@@H](C)O)C(=O)N1)[C@@H](C)O)C(=O)N[C@@H](CC(C)C)C(=O)N[C@@H](CO)C(=O)N[C@@H](CCCNC(=N)N)C(=O)N[C@H](C(=O)N[C@@H](CC(N)=O)C(=O)N[C@H](C(=O)NCC(=O)N[C@@H](CO)C(=O)N[C@@H](CC(N)=O)C(=O)N[C@H](C(=O)N[C@@H](Cc1ccc(O)cc1)C(N)=O)[C@@H](C)O)C(C)C)[C@@H](C)O [Example 7, N-alpha-[(S)-4-Carboxy-4-(19-carboxynonadecanoylamino)butyryl]-[His1,Glu14,His17,Arg18,Glu25,Ser28,Arg29]-pramlintide] ({C20 diacid-γGlu}-HCNTATCATQRLAEFLHRSSNNFGEILSRTNVGSNTY-NH2; disulfide 2-7 (inferred); C-terminus assumed)
Food intake reduction 0-24 h 3 nmol/kg (%) (0-24 h): 53% | Food intake reduction 24-48 h 3 nmol/kg (%) (24-48 h): 46%

CC[C@H](C)[C@H](NC(=O)[C@@H]1CCCN1C(=O)CNC(=O)[C@H](Cc1ccccc1)NC(=O)[C@H](CC(N)=O)NC(=O)[C@H](CC(N)=O)NC(=O)[C@H](CO)NC(=O)[C@H](CO)NC(=O)[C@H](CCCNC(=N)N)NC(=O)[C@H](Cc1c[nH]cn1)NC(=O)[C@H](CC(C)C)NC(=O)[C@H](Cc1ccccc1)NC(=O)[C@H](CCC(=O)O)NC(=O)[C@H](C)NC(=O)[C@H](CC(C)C)NC(=O)[C@H](CCCNC(=N)N)NC(=O)[C@H](CCC(N)=O)NC(=O)[C@@H](NC(=O)[C@H](C)NC(=O)[C@@H]1CSSC[C@H](NC(=O)[C@H](CCCN)NC(=O)[C@@H](CCCNC(=N)N)NC(=O)[C@@H](CCCNC(=N)N)NC(=O)COCCOCCNC(=O)COCCOCCNC(=O)CC[C@H](NC(=O)CCCCCCCCCCCCCCCCC(=O)O)C(=O)O)C(=O)N[C@@H](CC(N)=O)C(=O)N[C@@H]([C@@H](C)O)C(=O)N[C@@H](C)C(=O)N[C@@H]([C@@H](C)O)C(=O)N1)[C@@H](C)O)C(=O)N[C@@H](CC(C)C)C(=O)N1CCC[C@H]1C(=O)N1CCC[C@H]1C(=O)N[C@H](C(=O)N[C@@H](CC(N)=O)C(=O)N[C@H](C(=O)NCC(=O)N[C@@H](CO)C(=O)N[C@@H](CC(N)=O)C(=O)N[C@H](C(=O)N[C@@H](Cc1ccc(O)cc1)C(N)=O)[C@@H](C)O)C(C)C)[C@@H](C)O [Example 120, N-alpha-[2-(2-{2-[2-(2-{2-[(S)-4-Carboxy-4-(17-carboxyheptadecanoylamino)butyrylamino]ethoxy}ethoxy)acetylamino]ethoxy}ethoxy)acetyl]-D-Arg-D-Arg-[Orn1,Glu14,His17,Arg18]-pramlintide] ({C18 diacid-γGlu-AEEA-AEEA}-[dR][dR][Orn]CNTATCATQRLAEFLHRSSNNFGPILPPTNVGSNTY-NH2; disulfide 4-9 (inferred); C-terminus assumed)
Food intake reduction 0-24 h 3 nmol/kg (%) (0-24 h): 53% | Food intake reduction 24-48 h 3 nmol/kg (%) (24-48 h): 2%

CC[C@H](C)[C@H](NC(=O)[C@@H]1CCCN1C(=O)CNC(=O)[C@H](Cc1ccccc1)NC(=O)[C@H](CC(N)=O)NC(=O)[C@H](CC(N)=O)NC(=O)[C@H](CO)NC(=O)[C@H](CO)NC(=O)[C@H](Cc1c[nH]cn1)NC(=O)[C@H](CCCNC(=N)N)NC(=O)[C@H](CC(C)C)NC(=O)[C@H](Cc1ccccc1)NC(=O)[C@H](CCC(=O)O)NC(=O)[C@H](C)NC(=O)[C@H](CC(C)C)NC(=O)[C@H](CCCNC(=N)N)NC(=O)[C@H](CCC(N)=O)NC(=O)[C@@H](NC(=O)[C@H](C)NC(=O)[C@@H]1CSSC[C@H](NC(=O)[C@H](Cc2c[nH]cn2)NC(=O)CNC(=O)CC[C@H](NC(=O)CCCCCCCCCCCCCCCCCCC(=O)O)C(=O)O)C(=O)N[C@@H](CC(N)=O)C(=O)N[C@@H]([C@@H](C)O)C(=O)N[C@@H](C)C(=O)N[C@@H]([C@@H](C)O)C(=O)N1)[C@@H](C)O)C(=O)N[C@@H](CC(C)C)C(=O)N1CCC[C@H]1C(=O)N1CCC[C@H]1C(=O)N[C@H](C(=O)N[C@@H](CC(N)=O)C(=O)N[C@H](C(=O)NCC(=O)N[C@@H](CO)C(=O)N[C@@H](CC(N)=O)C(=O)N[C@H](C(=O)N1CCC[C@H]1C(N)=O)[C@@H](C)O)C(C)C)[C@@H](C)O [Example 89, N-alpha-[(S)-4-Carboxy-4-(19-carboxynonadecanoylamino)butyryl]-Gly-[His1,Glu14,Arg17,Pro37]-pramlintide] ({C20 diacid-γGlu}-GHCNTATCATQRLAEFLRHSSNNFGPILPPTNVGSNTP-NH2; disulfide 3-8 (inferred))
Food intake reduction 0-24 h 3 nmol/kg (%) (0-24 h): 42% | Food intake reduction 24-48 h 3 nmol/kg (%) (24-48 h): 23%

CC[C@H](C)[C@H](NC(=O)[C@@H]1CCCN1C(=O)CNC(=O)[C@H](Cc1ccccc1)NC(=O)[C@H](CC(N)=O)NC(=O)[C@H](CC(N)=O)NC(=O)[C@H](CO)NC(=O)[C@H](CO)NC(=O)[C@H](Cc1c[nH]cn1)NC(=O)[C@H](Cc1c[nH]cn1)NC(=O)[C@H](CC(C)C)NC(=O)[C@H](Cc1ccccc1)NC(=O)[C@H](CCC(=O)O)NC(=O)[C@H](C)NC(=O)[C@H](CC(C)C)NC(=O)[C@H](CCCNC(=N)N)NC(=O)[C@H](CCC(N)=O)NC(=O)[C@@H](NC(=O)[C@H](C)NC(=O)[C@@H]1CSSC[C@H](NC(=O)[C@H](CCCCN)NC(=O)CC[C@H](NC(=O)CCCCCCCCCCCCCCCCC(=O)O)C(=O)O)C(=O)N[C@@H](CC(N)=O)C(=O)N[C@@H]([C@@H](C)O)C(=O)N[C@@H](C)C(=O)N[C@@H]([C@@H](C)O)C(=O)N1)[C@@H](C)O)C(=O)N[C@@H](CC(C)C)C(=O)N1CCC[C@H]1C(=O)N1CCC[C@H]1C(=O)N[C@H](C(=O)N[C@@H](CC(N)=O)C(=O)N[C@H](C(=O)NCC(=O)N[C@@H](CO)C(=O)N[C@@H](CC(N)=O)C(=O)N[C@H](C(=O)N[C@@H](Cc1ccc(O)cc1)C(N)=O)[C@@H](C)O)C(C)C)[C@@H](C)O [Example 46, N-alpha-[(S)-4-Carboxy-4-(17-carboxyheptadecanoylamino)butyryl]-[Glu14,His17]-pramlintide] ({C18 diacid-γGlu}-KCNTATCATQRLAEFLHHSSNNFGPILPPTNVGSNTY-NH2; disulfide 2-7 (inferred); C-terminus assumed)
Food intake reduction 0-24 h 3 nmol/kg (%) (0-24 h): 54% | Food intake reduction 24-48 h 3 nmol/kg (%) (24-48 h): 27%

CC[C@H](C)[C@H](NC(=O)[C@@H]1CCCN1C(=O)CNC(=O)[C@H](Cc1ccccc1)NC(=O)[C@H](CC(N)=O)NC(=O)[C@H](CC(N)=O)NC(=O)[C@H](CO)NC(=O)[C@H](CO)NC(=O)[C@H](Cc1c[nH]cn1)NC(=O)[C@H](Cc1c[nH]cn1)NC(=O)[C@H](CC(C)C)NC(=O)[C@H](Cc1ccccc1)NC(=O)[C@H](CCC(=O)O)NC(=O)[C@H](C)NC(=O)[C@H](CC(C)C)NC(=O)[C@H](CCCNC(=N)N)NC(=O)[C@H](CCC(N)=O)NC(=O)[C@@H](NC(=O)[C@H](C)NC(=O)[C@@H]1CSSC[C@H](NC(=O)[C@H](CCCCN)NC(=O)[C@H](CCC(=O)O)NC(=O)CC[C@H](NC(=O)CCCCCCCCCCCCCCCCCCC(=O)O)C(=O)O)C(=O)N[C@@H](CC(N)=O)C(=O)N[C@@H]([C@@H](C)O)C(=O)N[C@@H](C)C(=O)N[C@@H]([C@@H](C)O)C(=O)N1)[C@@H](C)O)C(=O)N[C@@H](CC(C)C)C(=O)N1CCC[C@H]1C(=O)N1CCC[C@H]1C(=O)N[C@H](C(=O)N[C@@H](CC(N)=O)C(=O)N[C@H](C(=O)NCC(=O)N[C@@H](CO)C(=O)N[C@@H](CC(N)=O)C(=O)N[C@H](C(=O)N[C@@H](Cc1ccc(O)cc1)C(N)=O)[C@@H](C)O)C(C)C)[C@@H](C)O [Example 26, N-alpha-[(S)-4-Carboxy-4-(19-carboxynonadecanoylamino)butyryl]-Glu-[Glu14,His17]-pramlintide] ({C20 diacid-γGlu}-EKCNTATCATQRLAEFLHHSSNNFGPILPPTNVGSNTY-NH2; disulfide 3-8 (inferred); C-terminus assumed)
Food intake reduction 0-24 h 3 nmol/kg (%) (0-24 h): 46% | Food intake reduction 24-48 h 3 nmol/kg (%) (24-48 h): 39%

CC[C@H](C)[C@H](NC(=O)[C@@H]1CCCN1C(=O)CNC(=O)[C@H](Cc1ccccc1)NC(=O)[C@H](CC(N)=O)NC(=O)[C@H](CC(N)=O)NC(=O)[C@H](CO)NC(=O)[C@H](CO)NC(=O)[C@H](CCCNC(=N)N)NC(=O)[C@H](Cc1c[nH]cn1)NC(=O)[C@H](CC(C)C)NC(=O)[C@H](Cc1ccccc1)NC(=O)[C@H](CCC(=O)O)NC(=O)[C@H](C)NC(=O)[C@H](CC(C)C)NC(=O)[C@H](CCCNC(=N)N)NC(=O)[C@H](CCC(N)=O)NC(=O)[C@@H](NC(=O)[C@H](C)NC(=O)[C@@H]1CSSC[C@H](NC(=O)[C@H](Cc2c[nH]cn2)NC(=O)CC[C@H](NC(=O)CCCCCCCCCCCCCCCCCCC(=O)O)C(=O)O)C(=O)N[C@@H](CC(N)=O)C(=O)N[C@@H]([C@@H](C)O)C(=O)N[C@@H](C)C(=O)N[C@@H]([C@@H](C)O)C(=O)N1)[C@@H](C)O)C(=O)N[C@@H](CC(C)C)C(=O)N1CCC[C@H]1C(=O)N1CCC[C@H]1C(=O)N[C@H](C(=O)N[C@@H](CC(N)=O)C(=O)N[C@H](C(=O)NCC(=O)N[C@@H](CO)C(=O)N[C@@H](CC(N)=O)C(=O)N[C@H](C(=O)N[C@@H](Cc1ccc(O)cc1)C(N)=O)[C@@H](C)O)C(C)C)[C@@H](C)O [Example 1, N-alpha-[(S)-4-Carboxy-4-(19-carboxynonadecanoylamino)butyryl]-[His1,Glu14,His17,Arg18]-pramlintide] ({C20 diacid-γGlu}-HCNTATCATQRLAEFLHRSSNNFGPILPPTNVGSNTY-NH2; disulfide 2-7 (inferred))
Food intake reduction 0-24 h 3 nmol/kg (%) (0-24 h): 50% | Food intake reduction 0-24 h 30 nmol/kg (%) (0-24 h, 30 nmol/kg): 93% | Food intake reduction 24-48 h 3 nmol/kg (%) (24-48 h): 45% | Food intake reduction 24-48 h 30 nmol/kg (%) (24-48 h, 30 nmol/kg): 92%

From patent US8722849B2, “Polypeptides” (Novo Nordisk A/S, priority 2011, dated 2014)
